The values that follow come from US20230114241A1, “METHODS OF TREATING EPILEPSY USING THE SAME” (Trevena, Inc., priority 2019, published 2023).

Series [1] has as its target T1, human sphingosine-1-phosphate receptor 1 (S1P1) (Homo sapiens, UniProt P21453). Description: Inhibition of cAMP production (HTRF cAMP HiRange), S1P1 CHO-K1 cells. It is filed as cell-based. The settings on record: for Emax: CHO-K1, efficacy normalized to maximum efficacy of fingolimod, read-out: hS1P1 CAMP SPAN; for EC50: read-out: hS1P1 CAMP pEC50 (converted). In a few lines:
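Intracellular cAMP changes read by TR-FRET (HTRF HiRange, 1 h room temperature) after 30 min compound exposure at 37 °C. Cells: overnight-plated CHO-K1 stably expressing tagged human S1P1 with EA-β-arrestin2. Responses normalized to fingolimod.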
Target sequence in this assay (P21453 whole entry): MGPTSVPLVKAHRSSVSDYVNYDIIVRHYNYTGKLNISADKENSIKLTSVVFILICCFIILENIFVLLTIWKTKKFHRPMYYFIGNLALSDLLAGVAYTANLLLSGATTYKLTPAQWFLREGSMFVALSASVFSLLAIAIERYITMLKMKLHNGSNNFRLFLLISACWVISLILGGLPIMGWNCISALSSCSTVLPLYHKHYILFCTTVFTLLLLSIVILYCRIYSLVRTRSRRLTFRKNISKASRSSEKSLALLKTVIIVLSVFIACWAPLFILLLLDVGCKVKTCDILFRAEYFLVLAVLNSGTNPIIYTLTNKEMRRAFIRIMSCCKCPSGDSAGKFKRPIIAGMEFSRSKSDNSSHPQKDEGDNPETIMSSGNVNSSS
A general note: Cyclic AMP is a second messenger, typically raised through Gs and lowered through Gi signalling.

Series [2] has as its target T1, human sphingosine-1-phosphate receptor 1 (S1P1). The series can be described thus: β-Arrestin2 recruitment assay (PathHunter), S1P1 CHO-K1 cells. It is filed as cell-based. The settings on record: for Emax: efficacy normalized to maximum efficacy of fingolimod, read-out: hS1P1 B-arrestin2 SPAN; for EC50: β-arrestin2 recruitment, read-out: hS1P1 B-arrestin2 pEC50 (converted). In a few lines:
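Agonist-driven β-arrestin2 recruitment measured by β-galactosidase complementation after 60 min compound exposure at 37 °C and 1 h detection at room temperature. Cells: stable CHO-K1 line expressing tagged human S1P1 with EA-β-arrestin2, plated the night before. Data expressed relative to fingolimod.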
Target sequence in this assay (P21453 whole entry): as above
Target sequence in this assay (P32121 whole entry partner): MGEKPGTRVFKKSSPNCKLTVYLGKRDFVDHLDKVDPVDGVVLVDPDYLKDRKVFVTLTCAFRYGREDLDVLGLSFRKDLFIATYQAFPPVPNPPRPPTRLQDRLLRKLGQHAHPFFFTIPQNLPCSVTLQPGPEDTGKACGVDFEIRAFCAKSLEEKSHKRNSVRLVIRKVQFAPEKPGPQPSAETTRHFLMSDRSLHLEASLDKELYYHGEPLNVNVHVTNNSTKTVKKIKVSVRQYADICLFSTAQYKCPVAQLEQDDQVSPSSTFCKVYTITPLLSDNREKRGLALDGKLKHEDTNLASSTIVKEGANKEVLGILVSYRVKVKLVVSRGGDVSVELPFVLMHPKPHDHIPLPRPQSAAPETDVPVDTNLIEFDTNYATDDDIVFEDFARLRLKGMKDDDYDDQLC
For orientation: Recruitment of arrestin is a read-out of receptor activation apart from second messengers.

The target in series [3] is human sphingosine-1-phosphate receptor 2 (S1P2) (Homo sapiens, UniProt O95136). Description: Selectivity: inositol monophosphate production (IP-one), S1P2 CHO-K1 cells. Format: cell-based. As to conditions: for Emax: CHO-K1, efficacy normalized to maximal efficacy of CYM5520, read-out: hS1P2 IP-one SPAN; for EC50: inositol monophosphate accumulation, read-out: hS1P2 IP-one pEC50 (converted). As to the method:
(§1) Cell Culturing and Assay Plating Cell lines were cultured in AssayComplete™ Media 6 (DiscoverX Corporation, Cat #: 920018GF2) at 37° C. and 5% CO2 in a humidified CO2 and temperature-controlled incubator. To begin assay plating, cells were washed with Dulbecco's phosphate buffered saline (CellGro, Cat #: 21-031-CV) and lifted from the culturing flask by incubation (37° C., 5 min) with CellStripper (Cellgro, Cat #: 25-056-CI). […] Plated cells were incubated overnight at 37° C. and 5% CO2 in a humidified CO2 and temperature-controlled incubator. Detecting Inhibition of cAMP Production
S1P2 Agonist-promoted G-protein responses were determined by measuring changes in intracellular inositol monophosphate using the IP-one TB kit (CisBio, Cat #: 62IPAPEJ) based on time-resolved fluorescence resonance energy transfer (TR-FRET) technology. AssayComplete™ Cell Plating 2 Reagent was removed and replaced with 1× IP-one stimulation buffer (as per manufacturer's instructions) along with test or control compounds at the desired concentrations.
Following a 60-minute incubation at 37° C. and 5% CO2 in a humidified CO2 and temperature-controlled incubator, the components of the IP-one TB kit were added as per the manufacturer's instructions. After an hour incubation at room temperature, plates were analyzed by a BMG PheraStar microplate reader.
(§2) These values are normalized to fimgolimod, a known agonist of the sphingosine-1-phosphate 3 and 5 receptor or CYM5520, a known agonist of the sphingosine-1-phosphate 2 receptor. The tables also include potency values (pEC50) for modulating discrete receptor-mediated activities (inhibition of cAMP production or inositol monophosphate accumulation).

In series [4] the target is human sphingosine-1-phosphate receptor 3 (S1P3) (Homo sapiens, UniProt Q99500). The series can be described thus: Selectivity: inhibition of cAMP production (HTRF), S1P3 CHO-K1 cells. Format: cell-based. As to conditions: for Emax: CHO-K1, efficacy normalized to maximal efficacy of fimgolimod, read-out: hS1P3 cAMP SPAN; for EC50: inhibition of cAMP production, read-out: hS1P3 cAMP pEC50 (converted). As to the method:
as §1
(§3) S1P3 and S1P5 Agonist-promoted G-protein responses were determined by measuring changes in intracellular cAMP using the HTRF® cAMP HiRange kit (CisBio, Cat #: 62AM6PEJ) based on time-resolved fluorescence resonance energy transfer (TR-FRET) technology. […] Following a 30-minute room temperature incubation the components of the cAMP HiRange kit were added as per the manufacturer's instructions. After an hour incubation at room temperature, plates were analyzed by a BMG PheraStar microplate reader.
as §2

Series [5] has as its target sphingosine-1-phosphate receptor 5 (S1P5) (Homo sapiens, UniProt Q9H228). Description: Selectivity: inhibition of cAMP production (HTRF), S1P5 CHO-K1 cells. Format: cell-based. The settings on record: for Emax: CHO-K1, efficacy normalized to maximal efficacy of fimgolimod, read-out: hS1P5 cAMP SPAN; for EC50: inhibition of cAMP production, read-out: hS1P5 cAMP pEC50 (converted). How it is done: as §1, §3, §2

The test system of series [6] is peripheral blood lymphocytes. Description: Lymphopenia: peripheral blood lymphocyte counts, acute and chronic s.c. dosing. Format: in vivo. As to conditions: c57bl/6 mice. As to the method:
Compounds were tested for changes in peripheral blood lymphocytes in C57bl/6 mice. In acute studies, animals (n=5/group) were dosed subcutaneously with test compound at a dose of 3 mg/kg. Animals were sacrificed at specific time points and […] of whole blood was collected in EDTA (K2) Eppendorf tubes. Blood was stored on ice and shipped immediately overnight delivery to Charles River Laboratories for analysis. CRL ran samples through their WBC/differential panel on an Advia 120 instrument. We received peripheral lymphocyte counts (10^3 cells/μl) for each blood sample. Treatment group means were compared to a vehicle treatment group for statistical significance. In chronic studies, animals (n=6-8/group) were dosed subcutaneously for three to seven days with test compound at doses that were at least 5-fold higher than the efficacious dose in pharmacology/behavioral assays. On the last day, animals were sacrificed 45 minutes to 6 hrs after the final dose. Whole blood was collected and analyzed as described for acute studies. […]

Series [7] concerns Corneal Kindled Seizure Model. The series can be described thus: Corneal Kindled Seizure Model (CKM), mouse. Format: in vivo. Also noted: key to Average Seizure Scores: seizure stage score; Stage 5 = rearing and falling, generalized clonic seizure. How it is done: Compounds are tested for efficacy in Corneal Kindled Seizure Model (CKM) Mouse. The pharmacological profile of the corneal kindled mouse is consistent with human partial epilepsy and effectively identifies the anticonvulsant potential of useful compounds for this condition, such as levetiracetam. Male C57BL/6 mice are kindled electrically with 3 sec stimulation, 3 mA, 60 Hz, and corneal electrodes to a criterion of 5 consecutive Stage 5 seizures (facial clonus and head nodding progressing to forelimb clonus, and finally rearing and falling accompanied by a generalized clonic seizure). After receiving twice daily corneal stimulations, mice typically reach the first Stage 5 seizure between approximately 10-14 days. […] Fully kindled mice are then stimulated every-other day until all other mice within the group reach the criterion of 5 consecutive Stage 5 seizures. Any mouse not achieving the fully kindled state is not included in any evaluation of investigational compounds. Testing of investigational compounds commences at least 5-7 days after the last stimulation. Mice are stimulated on the day prior to any drug evaluation to ensure that all mice to be used in the drug study will present with a Stage 5 seizure. […] After testing, the corneal kindled animals are returned to their home cage. Unlike the acute seizure tests conducted by the ETSP, each corneal kindled mouse is allowed at least 3-4 days between tests to “washout” any investigational compound after testing. Compound 469 was tested in the method described in Example 5. The data for Compound 469 is illustrated in Tables 1-4.

The next series concerns the target hERG channel (Homo sapiens, UniProt Q12809). Description: cell-based.
Setting [8] is: inhibition of cAMP production, potency.
Where [9] appears, read: CHO-K1, β-arrestin2 recruitment.
Where [10] appears, read: inhibition of cAMP production, S1P1.
Setting [11] is: 3 mg/kg s.c., 0.5 hour, Experiment 1.
Setting [12] is: 3 mg/kg s.c., 1 hour, Experiment 1.
Setting [13] is: 5 mg/kg s.c., 0.5 hour, Experiment 1.
Setting [14] is: 5 mg/kg s.c., 1 hour, Experiment 1.

Structures are written as SMILES.

Chain of hERG channel (Q12809 whole entry): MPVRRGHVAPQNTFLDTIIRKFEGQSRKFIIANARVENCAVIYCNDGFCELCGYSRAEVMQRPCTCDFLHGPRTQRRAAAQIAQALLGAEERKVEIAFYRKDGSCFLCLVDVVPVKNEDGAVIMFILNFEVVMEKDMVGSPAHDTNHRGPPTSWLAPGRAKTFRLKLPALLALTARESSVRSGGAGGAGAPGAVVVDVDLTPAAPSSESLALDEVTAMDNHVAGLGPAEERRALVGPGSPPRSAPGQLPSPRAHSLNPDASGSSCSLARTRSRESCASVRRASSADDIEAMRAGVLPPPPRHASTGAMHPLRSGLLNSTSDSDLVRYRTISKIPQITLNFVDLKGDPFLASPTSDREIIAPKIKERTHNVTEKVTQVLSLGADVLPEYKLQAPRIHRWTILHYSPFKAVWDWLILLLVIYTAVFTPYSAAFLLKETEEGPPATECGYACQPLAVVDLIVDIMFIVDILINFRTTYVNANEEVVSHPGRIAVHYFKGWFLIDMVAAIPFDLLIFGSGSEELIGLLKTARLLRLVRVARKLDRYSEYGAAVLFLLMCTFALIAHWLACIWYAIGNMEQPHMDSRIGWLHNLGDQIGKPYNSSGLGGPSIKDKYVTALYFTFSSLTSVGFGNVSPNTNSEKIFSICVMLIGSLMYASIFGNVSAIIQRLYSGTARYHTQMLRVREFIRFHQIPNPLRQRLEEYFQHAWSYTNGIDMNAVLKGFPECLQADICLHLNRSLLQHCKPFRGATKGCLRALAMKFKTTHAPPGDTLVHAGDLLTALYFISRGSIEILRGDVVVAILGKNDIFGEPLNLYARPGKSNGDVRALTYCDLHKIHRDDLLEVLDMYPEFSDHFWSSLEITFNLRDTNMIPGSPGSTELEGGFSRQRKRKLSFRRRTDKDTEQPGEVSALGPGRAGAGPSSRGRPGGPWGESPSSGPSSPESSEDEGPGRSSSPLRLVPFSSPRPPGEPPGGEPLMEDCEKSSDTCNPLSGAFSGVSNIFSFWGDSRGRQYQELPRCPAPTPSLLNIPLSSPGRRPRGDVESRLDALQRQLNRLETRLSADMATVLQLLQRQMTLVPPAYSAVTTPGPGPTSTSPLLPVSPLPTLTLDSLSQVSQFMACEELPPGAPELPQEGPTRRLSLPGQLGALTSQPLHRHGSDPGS
Chain of human sphingosine-1-phosphate receptor 3 (S1P3) (Q99500 whole entry): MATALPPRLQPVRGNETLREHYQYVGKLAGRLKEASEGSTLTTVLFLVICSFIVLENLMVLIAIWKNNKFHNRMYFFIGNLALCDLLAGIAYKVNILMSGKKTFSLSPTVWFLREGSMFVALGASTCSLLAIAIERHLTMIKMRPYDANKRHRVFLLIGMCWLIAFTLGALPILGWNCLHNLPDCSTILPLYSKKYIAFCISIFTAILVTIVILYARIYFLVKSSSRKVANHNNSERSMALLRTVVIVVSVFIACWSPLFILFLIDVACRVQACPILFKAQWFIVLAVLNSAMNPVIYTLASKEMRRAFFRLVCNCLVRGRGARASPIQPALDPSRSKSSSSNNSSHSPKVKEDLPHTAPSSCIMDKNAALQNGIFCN
Chain of human sphingosine-1-phosphate receptor 2 (S1P2) (O95136 whole entry): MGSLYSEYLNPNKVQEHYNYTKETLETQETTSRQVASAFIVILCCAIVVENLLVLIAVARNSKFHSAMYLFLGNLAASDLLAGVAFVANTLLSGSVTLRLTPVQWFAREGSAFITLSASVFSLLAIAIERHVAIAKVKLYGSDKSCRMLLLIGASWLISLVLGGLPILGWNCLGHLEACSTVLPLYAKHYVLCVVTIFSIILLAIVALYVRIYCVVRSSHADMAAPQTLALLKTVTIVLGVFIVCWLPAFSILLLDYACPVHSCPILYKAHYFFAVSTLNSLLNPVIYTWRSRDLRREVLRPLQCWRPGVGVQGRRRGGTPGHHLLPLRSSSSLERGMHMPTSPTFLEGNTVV
Chain of sphingosine-1-phosphate receptor 5 (S1P5) (Q9H228 whole entry): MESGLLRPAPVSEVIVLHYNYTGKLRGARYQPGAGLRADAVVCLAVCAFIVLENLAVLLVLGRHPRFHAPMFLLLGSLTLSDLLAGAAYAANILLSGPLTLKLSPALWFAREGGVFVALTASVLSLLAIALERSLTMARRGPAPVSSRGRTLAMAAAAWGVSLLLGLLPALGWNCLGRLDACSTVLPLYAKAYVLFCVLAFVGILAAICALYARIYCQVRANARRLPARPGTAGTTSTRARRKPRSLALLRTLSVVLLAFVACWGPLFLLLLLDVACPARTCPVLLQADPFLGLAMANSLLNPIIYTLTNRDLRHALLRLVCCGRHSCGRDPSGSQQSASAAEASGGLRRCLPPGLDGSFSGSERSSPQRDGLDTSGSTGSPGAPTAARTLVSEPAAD

For `CC(C)n1nnc2cc(-c3nc(-c4cccc5c4OCO5)no3)ccc21` [Compound 32, 3-(benzo[d][1,3]dioxol-4-yl)-5-(1-isopropyl-1H-benzo[d][1,2,3]triazol-5-yl)-1,2,4-oxadiazole], the Emax was over 75% in series [1] (inhibition of cAMP production); under 75% in series [2] (setting [9]); under 50% in series [3]; under 50% in series [4]; under 50% in series [5]. In addition, the EC50 in series [1] (setting [8]) is under 0.316 µM; in series [2] (potency) it was under 10 µM; in series [3] it was over 10 µM; in series [4], over 10 µM; in series [5], over 10 µM. In addition, the “Lymphopenia effect (peripheral blood lymphocytes)” value (“Lymphopenia effect” for short) in series [6] (6 mg/kg sc, 7 days) was “no change: 6 mg/kg, 7 days”.
As for `Cc1ccccc1-c1nc(-c2ccc3c(c2)nnn3C(C)C)no1` [Compound 99, 3-(1-isopropyl-1H-benzo[d][1,2,3]triazol-5-yl)-5-(o-tolyl)-1,2,4-oxadiazole], the Emax in series [1] (inhibition of cAMP production) is over 75%; in series [2] (setting [9]), over 75%; in series [3], under 50%; in series [4], under 50%; in series [5] it was over 50%. The EC50 in series [1] (setting [8]) was under 0.316 µM; in series [2] (potency), under 10 µM; in series [3] it was over 10 µM; in series [4], over 10 µM; in series [5], over 10 µM. The “Lymphopenia effect” value in series [6] (6 mg/kg sc, 7 days) was “no change: 6 mg/kg, 7 days”.
`COc1ccccc1-c1nc(-c2ccc3c(c2)nnn3C(C)C)no1` [Compound 287, 3-(1-isopropyl-1H-benzo[d][1,2,3]triazol-5-yl)-5-(2-methoxy-phenyl)-1,2,4-oxadiazole]: the Emax in series [1] (inhibition of cAMP production) is over 75%; in series [2] (setting [9]) it was over 75%; in series [3] it was under 50%; in series [4], under 50%; in series [5], under 50%. Also, the EC50 is under 0.316 µM in series [1] (setting [8]); under 10 µM in series [2] (potency); over 10 µM in series [3]; over 10 µM in series [4]; over 10 µM in series [5]. In addition, the “Lymphopenia effect” value in series [6] (6 mg/kg sc, 7 days) is “no change: 6 mg/kg, 7 days”.
For `N#Cc1cc(-c2nc(-c3ccc4oc(=O)[nH]c4c3)no2)ccc1NCC1CC1` [Compound 423, 2-((cyclopropyl-methyl)amino)-5-(3-(2-oxo-2,3-dihydrobenzo[d]oxazol-5-yl)-1,2,4-oxadiazol-5-yl)benzonitrile], the Emax in series [1] is over 75%; in series [2] (CHO-K1), over 75%; in series [3] it was under 50%; in series [4], under 50%. Moreover, the EC50 in series [1] (setting [10]) was under 0.316 µM; in series [2] (S1P1) it was under 10 µM; in series [3], under 10 µM; in series [4], under 10 µM. Moreover, the “Lymphopenia effect” value in series [6] (6 mg/kg sc, 7 days) is reported as “no change: 6 mg/kg, 7 days”.
As for `CCC1(CC)CC(=O)c2cc(-c3nc(-c4cn[nH]c4)no3)ccc2O1` [Compound 469, 6-(3-(1H-pyrazol-4-yl)-1,2,4-oxadiazol-5-yl)-2,2-diethyl-chroman-4-one], in series [1] (setting [10]), the EC50 is under 0.316 µM. For the same compound, the “Average Seizure Scores” value in series [7] (1 mg/kg, 2 hrs, Experiment 2) worked out at 3.25; in series [7] (2.5 mg/kg, 2 hrs, Experiment 2), 3.38; in series [7] (setting [11]) it was 4.5; in series [7] (setting [12]), 3.38; in series [7] (setting [13]), 4; in series [7] (setting [14]), 3.38. Moreover, the “Average Seizure Scores” value stood at 2.5 in series [7] (5 mg/kg, 2 hrs, Experiment 2); 2.38 in series [7] (10 mg/kg, 1 hour); 0.63 in series [7] (10 mg/kg, 2 hrs). Besides, the “N/F (number of animals protected / total number tested)” value was 1/8 in series [7] (1 mg/kg, 2 hrs, Experiment 2); 2/8 in series [7] (2.5 mg/kg, 2 hrs, Experiment 2); 0/8 in series [7] (setting [11]); 1/8 in series [7] (setting [12]); 0/8 in series [7] (setting [13]); 1/8 in series [7] (setting [14]). Moreover, the “N/F (number of animals protected / total number tested)” value in series [7] (5 mg/kg, 2 hrs, Experiment 2) is listed as 3/8; in series [7] (10 mg/kg, 1 hour), 2/8; in series [7] (10 mg/kg, 2 hrs), 7/8. In addition, the effect on seizures entry in series [7] (Corneal Kindled Seizure Model, mouse) is given as “can reduce seizures”. In series [7] (Corneal Kindled Seizure Model, mouse, 2 hrs time point), this compound returned an ED50 of 6.2 mg/kg. For the same compound, the “Lymphopenia effect” value in series [6] (3.7 mg/kg sc, 3 days) is “no change: 3.7 mg/kg, 3 days”.
On to `CC(C)Oc1ccc(-c2ncc(-c3cccnc3)cn2)cc1C#N` [Compound 738, 2-isopropoxy-5-(5-(pyridin-3-yl)pyrimidin-2-yl)benzonitrile], for which the IC50 at hERG channel was over 10 µM.
As to `CC(C)Oc1ccc(-c2ncc(-c3ccccn3)cn2)cc1C#N` [Compound 742, 2-isopropoxy-5-(5-(pyridin-2-yl)pyrimidin-2-yl)benzonitrile], the IC50 against hERG channel is over 10 µM.
Same read-out and setting: as for `CC(C)Nc1ccc(-c2ncc(-c3ccnc(O)c3)cn2)cc1C#N` [Compound 743, 5-(5-(2-hydroxy-pyridin-4-yl)pyrimidin-2-yl)-2-(isopropyl-amino)benzonitrile], the figure is over 10 µM.

Broadly, the ED50 is the midpoint of the dose-response relation. As a reminder, the IC50 is the concentration that inhibits the measured activity by half.
